pIC50: −log10 of the molar value.
Columns and labels:
[1] = Selectivity ratio of IC50 for human ALK4 to IC50 for human ALK2; type: ADME
Activin receptor type-1B = target: T1, Activin receptor type-1B (Homo sapiens, UniProt P36896); assay: Inhibition of human ALK4 using casein as substrate in presence of [gamma-33P]-ATP by radiometric hotspot assay; type: ADME
T1 sequence (P36896 whole entry): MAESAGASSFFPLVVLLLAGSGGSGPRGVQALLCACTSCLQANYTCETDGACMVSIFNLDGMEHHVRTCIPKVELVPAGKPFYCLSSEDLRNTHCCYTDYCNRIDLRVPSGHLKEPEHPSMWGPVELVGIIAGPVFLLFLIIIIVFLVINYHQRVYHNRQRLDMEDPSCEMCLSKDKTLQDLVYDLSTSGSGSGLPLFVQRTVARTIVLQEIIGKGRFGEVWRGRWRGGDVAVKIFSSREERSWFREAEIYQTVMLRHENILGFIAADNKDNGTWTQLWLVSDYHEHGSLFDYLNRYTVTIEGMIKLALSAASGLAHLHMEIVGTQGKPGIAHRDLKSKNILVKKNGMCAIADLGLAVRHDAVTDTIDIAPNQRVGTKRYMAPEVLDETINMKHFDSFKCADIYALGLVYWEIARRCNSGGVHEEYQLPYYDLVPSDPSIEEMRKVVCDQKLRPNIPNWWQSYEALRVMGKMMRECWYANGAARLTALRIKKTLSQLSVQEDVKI

Activin receptor type-1 [2] = target: T2, Activin receptor type-1 (Homo sapiens, UniProt Q04771); assay: Competitive displacement of PBI-6908 from nanoluciferase-fused ALK2 (unknown origin) expressed in HEK293 cells incubated for 2 hrs by NanoBRET NanoGlo substrate based NanoBRET assay; type: cell-based
T2 sequence (Q04771 whole entry): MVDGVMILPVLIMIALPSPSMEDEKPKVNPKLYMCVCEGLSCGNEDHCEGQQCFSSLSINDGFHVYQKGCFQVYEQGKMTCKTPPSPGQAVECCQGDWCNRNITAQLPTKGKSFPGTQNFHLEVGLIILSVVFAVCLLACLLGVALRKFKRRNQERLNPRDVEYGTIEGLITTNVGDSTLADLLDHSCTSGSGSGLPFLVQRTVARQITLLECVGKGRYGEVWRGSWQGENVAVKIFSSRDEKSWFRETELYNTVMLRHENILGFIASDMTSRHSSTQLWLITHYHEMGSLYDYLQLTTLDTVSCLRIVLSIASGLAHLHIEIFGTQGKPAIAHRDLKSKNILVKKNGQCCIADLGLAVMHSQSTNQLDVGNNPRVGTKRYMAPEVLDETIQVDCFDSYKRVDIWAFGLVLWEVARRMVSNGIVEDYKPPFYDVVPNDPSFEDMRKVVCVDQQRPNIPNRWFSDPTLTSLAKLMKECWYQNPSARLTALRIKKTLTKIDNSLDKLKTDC

TGF-beta receptor type-1 [3] = target: T3, TGF-beta receptor type-1 (Homo sapiens, UniProt P36897); assay: Inhibition of recombinant human ALK5 expressed in HEK293 cells transfected with CAGA-luciferase and Renilla luciferase reporter after 24 hrs by dual luciferase reporter assay; type: cell-based
T3 sequence (P36897 whole entry): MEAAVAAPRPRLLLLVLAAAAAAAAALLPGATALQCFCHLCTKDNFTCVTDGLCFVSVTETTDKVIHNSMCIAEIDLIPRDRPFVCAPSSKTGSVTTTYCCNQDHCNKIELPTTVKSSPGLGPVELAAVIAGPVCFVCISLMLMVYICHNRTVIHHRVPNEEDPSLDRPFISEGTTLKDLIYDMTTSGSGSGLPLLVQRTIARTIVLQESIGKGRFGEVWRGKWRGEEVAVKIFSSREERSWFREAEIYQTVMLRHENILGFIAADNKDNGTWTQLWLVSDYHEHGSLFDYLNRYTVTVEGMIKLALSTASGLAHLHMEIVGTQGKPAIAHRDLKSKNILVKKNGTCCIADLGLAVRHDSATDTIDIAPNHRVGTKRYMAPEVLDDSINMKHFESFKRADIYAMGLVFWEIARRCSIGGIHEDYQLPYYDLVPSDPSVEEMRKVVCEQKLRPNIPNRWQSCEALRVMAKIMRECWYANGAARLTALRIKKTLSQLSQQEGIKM

TGF-beta receptor type-1 [4] = target: T3, TGF-beta receptor type-1; assay: Inhibition of human ALK5 using casein as substrate in presence of [gamma-33P]-ATP by radiometric hotspot assay; type: ADME
Activin receptor type-1 [5] = target: T2, Activin receptor type-1; assay: Inhibition of human ALK2 using casein as substrate in presence of [gamma-33P]-ATP by radiometric hotspot assay
[6] = target: Voltage-gated inwardly rectifying potassium channel KCNH2 (Homo sapiens, UniProt Q12809); assay: Inhibition of human ERG expressed in HEK293 cells after 5 mins by IonWorks barracuda patch clamp method; type: cell-based
Sequence of Voltage-gated inwardly rectifying potassium channel KCNH2 (Q12809 whole entry): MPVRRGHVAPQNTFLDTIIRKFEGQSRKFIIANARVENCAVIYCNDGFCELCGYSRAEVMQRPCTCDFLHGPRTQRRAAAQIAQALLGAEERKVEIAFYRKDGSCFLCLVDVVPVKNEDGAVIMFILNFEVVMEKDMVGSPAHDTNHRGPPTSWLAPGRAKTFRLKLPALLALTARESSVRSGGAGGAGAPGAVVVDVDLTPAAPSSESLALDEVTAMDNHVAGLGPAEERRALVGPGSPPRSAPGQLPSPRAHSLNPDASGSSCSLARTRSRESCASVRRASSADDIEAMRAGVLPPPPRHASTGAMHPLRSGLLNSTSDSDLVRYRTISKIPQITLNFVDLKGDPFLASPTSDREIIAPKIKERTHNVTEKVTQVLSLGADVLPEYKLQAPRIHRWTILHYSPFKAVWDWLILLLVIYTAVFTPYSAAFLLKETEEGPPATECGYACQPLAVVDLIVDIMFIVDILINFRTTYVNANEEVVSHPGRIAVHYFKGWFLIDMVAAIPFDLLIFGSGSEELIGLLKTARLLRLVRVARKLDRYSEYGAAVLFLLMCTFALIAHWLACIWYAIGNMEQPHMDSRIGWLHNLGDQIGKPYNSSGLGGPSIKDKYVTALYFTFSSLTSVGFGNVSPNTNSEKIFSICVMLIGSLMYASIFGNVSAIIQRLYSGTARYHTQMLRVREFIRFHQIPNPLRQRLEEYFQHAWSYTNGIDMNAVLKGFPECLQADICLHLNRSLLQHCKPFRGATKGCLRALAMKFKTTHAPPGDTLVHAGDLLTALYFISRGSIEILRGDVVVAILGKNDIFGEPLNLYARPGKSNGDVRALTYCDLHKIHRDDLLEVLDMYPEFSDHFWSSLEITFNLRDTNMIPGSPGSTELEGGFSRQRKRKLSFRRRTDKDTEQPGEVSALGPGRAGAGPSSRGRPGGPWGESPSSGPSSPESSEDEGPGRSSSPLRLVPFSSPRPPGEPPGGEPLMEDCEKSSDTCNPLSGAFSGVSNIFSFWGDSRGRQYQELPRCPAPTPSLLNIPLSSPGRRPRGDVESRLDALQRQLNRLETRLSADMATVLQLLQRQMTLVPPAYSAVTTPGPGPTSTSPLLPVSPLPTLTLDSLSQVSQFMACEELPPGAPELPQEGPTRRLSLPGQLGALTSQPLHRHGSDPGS

| Structure (SMILES) | Ratio IC50 [1] | pIC50 (Activin receptor type-1B) | pIC50 (Activin receptor type-1 [2]) | pIC50 (TGF-beta receptor type-1 [3]) | pIC50 (TGF-beta receptor type-1 [4]) | pIC50 (Activin receptor type-1 [5]) | pIC50 [6] |
| --- | --- | --- | --- | --- | --- | --- | --- |
| COc1cc(-c2cncc(-c3ccc(N4CCNCC4)cc3)c2)cc(OC)c1OC | 36 | 6.34 |  |  |  |  |  |
| COc1cc(OC)cc(-c2cncc(-c3ccc(N4CCNCC4)cc3)c2C)c1 |  |  | 6.36 | < 5.30 | < 5.30 | 7.41 |  |
| COc1cc(-c2cncc(-c3ccc(OC4CCN(C)CC4)cc3)c2C)cc(OC)c1OC |  |  | 7.17 | 5.68 | 5.78 | 8.22 |  |
| COc1cc(-c2cncc(-c3ccc(N4CCNCC4)cc3)c2C#N)cc(OC)c1F |  |  | 7.31 | 5.82 | 6.31 | 7.96 |  |
| COc1cc(-c2cncc(-c3ccc(N4CCNCC4)cc3)c2C(F)(F)F)cc(OC)c1OC |  |  | 6.74 | < 5.30 | < 5.30 | 7.17 |  |
| COc1cc(-c2cncc(-c3ccc(N4CCCNCC4)cc3)c2C)cc(OC)c1OC |  |  | 7.08 | 5.34 | 5.52 | 7.89 |  |
| COc1cc(-c2cncc(-c3ccc(N4CCNCC4)cc3)c2N)cc(OC)c1OC |  |  | 6.59 | < 5.30 | < 5.30 | 6.34 |  |
| COc1cc(-c2cncc(-c3ccc(N4CCN(CCF)CC4)cc3)c2C)cc(OC)c1OC |  |  | 6.75 | < 5.30 | 5.49 | 7.77 |  |
| COc1cc(-c2cncc(-c3ccc(N4CCNCC4)cc3)c2F)cc(OC)c1OC | 42 | 6.20 | 7.49 | 5.66 | 6.06 | 7.82 |  |
| COc1cc(-c2cncc(-c3ccc(N4CCNCC4)cc3)c2Cl)cc(OC)c1OC | 60 | 6.02 | 7.24 | 5.02 | 5.88 | 7.80 | 5.57 |
| COc1cc(-c2cncc(-c3ccc(N4CCN(C(=O)N(C)C)CC4)cc3)c2C)cc(OC)c1OC |  |  | 6.83 | < 5.30 | < 5.30 | 8.40 |  |
| COc1cc(-c2cncc(-c3ccc(N4CCOCC4)cc3)c2C)cc(OC)c1OC |  |  | 6.48 | < 5.30 | 5.63 | 7.55 |  |
| COc1cc(-c2cncc(-c3ccc(CN4CCN(C)CC4)cc3)c2C)cc(OC)c1OC |  |  | 6.97 | < 5.30 | 5.58 | 7.70 |  |
